{
  "source": "PubChem BioAssay (NCI)",
  "assay_in_all_cases": "NCI-60 cell line screen, 48 h",
  "key": {"PC-3 prostate": {"test_system": "PC-3 prostate"}, "NCI-H460 lung": {"test_system": "NCI-H460 lung"}, "K-562 leukemia": {"test_system": "K-562 leukemia"}, "EKVX NSCLC": {"test_system": "EKVX NSCLC"}, "UACC-257 melanoma": {"test_system": "UACC-257 melanoma"}, "MALME-3M melanoma": {"test_system": "MALME-3M melanoma"}, "A549 NSCLC": {"test_system": "A549 NSCLC"}, "RPMI-8226 leukemia": {"test_system": "RPMI-8226 leukemia"}, "SK-MEL-2 melanoma": {"test_system": "SK-MEL-2 melanoma"}, "UACC-62 melanoma": {"test_system": "UACC-62 melanoma"}, "SF-539 CNS": {"test_system": "SF-539 CNS"}, "NCI-H522 lung": {"test_system": "NCI-H522 lung"}, "HL-60(TB) leukemia": {"test_system": "HL-60(TB) leukemia"}, "NCI-H23 lung": {"test_system": "NCI-H23 lung"}, "CCRF-CEM leukemia": {"test_system": "CCRF-CEM leukemia"}, "MDA-MB-231 breast": {"test_system": "MDA-MB-231 breast"}, "M14 melanoma": {"test_system": "M14 melanoma"}, "OVCAR-5 ovarian": {"test_system": "OVCAR-5 ovarian"}, "SW-620 colon": {"test_system": "SW-620 colon"}, "KM12 colon": {"test_system": "KM12 colon"}, "MCF7 breast": {"test_system": "MCF7 breast"}, "TK-10 renal": {"test_system": "TK-10 renal"}, "SF-295 CNS": {"test_system": "SF-295 CNS"}, "BT-549 breast": {"test_system": "BT-549 breast"}, "NCI/ADR-RES ovarian": {"test_system": "NCI/ADR-RES ovarian"}, "HCC-2998 colon": {"test_system": "HCC-2998 colon"}, "MDA-MB-435": {"test_system": "MDA-MB-435"}, "HCT-116 colon": {"test_system": "HCT-116 colon"}, "786-0 renal": {"test_system": "786-0 renal"}},
  "note": "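Compound exposure: 48 hours, 5 concentrations, 96-well plates. At the GI50, growth is halved. TGI: concentration producing complete growth inhibition.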",
  "data": [
    {"smiles": "CN1CCN(Cc2ccc(NC(=O)c3cnc(F)c(C#Cc4cnc(N)c5ncccc45)c3)cc2C(F)(F)F)CC1", "values": [
      {"measurement": "TGI", "setting": "PC-3 prostate", "result": 10100, "unit": "nM"},
      {"measurement": "GI50", "setting": "NCI-H460 lung", "result": 182, "unit": "nM"},
      {"measurement": "TGI", "setting": "NCI-H460 lung", "result": 6490, "unit": "nM"},
      {"measurement": "GI50", "setting": "K-562 leukemia", "result": 5, "unit": "nM"},
      {"measurement": "TGI", "setting": "K-562 leukemia", "result": 675, "unit": "nM"},
      {"measurement": "GI50", "setting": "EKVX NSCLC", "result": 1530, "unit": "nM"},
      {"measurement": "TGI", "setting": "EKVX NSCLC", "result": 11300, "unit": "nM"},
      {"measurement": "GI50", "setting": "UACC-257 melanoma", "result": 339, "unit": "nM"},
      {"measurement": "TGI", "setting": "UACC-257 melanoma", "result": 6510, "unit": "nM"},
      {"measurement": "GI50", "setting": "MALME-3M melanoma", "result": 50.8, "unit": "nM"},
      {"measurement": "TGI", "setting": "MALME-3M melanoma", "result": 234, "unit": "nM"},
      {"measurement": "GI50", "setting": "A549 NSCLC", "result": 321, "unit": "nM"},
      {"measurement": "TGI", "setting": "A549 NSCLC", "result": 11900, "unit": "nM"},
      {"measurement": "GI50", "setting": "RPMI-8226 leukemia", "result": 332, "unit": "nM"},
      {"measurement": "TGI", "setting": "RPMI-8226 leukemia", "result": 22700, "unit": "nM"},
      {"measurement": "GI50", "setting": "SK-MEL-2 melanoma", "result": 114, "unit": "nM"},
      {"measurement": "TGI", "setting": "SK-MEL-2 melanoma", "result": 451, "unit": "nM"},
      {"measurement": "GI50", "setting": "UACC-62 melanoma", "result": 103, "unit": "nM"},
      {"measurement": "TGI", "setting": "UACC-62 melanoma", "result": 586, "unit": "nM"},
      {"measurement": "GI50", "setting": "SF-539 CNS", "result": 199, "unit": "nM"},
      {"measurement": "TGI", "setting": "SF-539 CNS", "result": 2830, "unit": "nM"},
      {"measurement": "GI50", "setting": "NCI-H522 lung", "result": 204, "unit": "nM"},
      {"measurement": "TGI", "setting": "NCI-H522 lung", "result": 9960, "unit": "nM"},
      {"measurement": "GI50", "setting": "HL-60(TB) leukemia", "result": 195, "unit": "nM"},
      {"measurement": "TGI", "setting": "HL-60(TB) leukemia", "result": 4410, "unit": "nM"},
      {"measurement": "GI50", "setting": "NCI-H23 lung", "result": 485, "unit": "nM"},
      {"measurement": "TGI", "setting": "NCI-H23 lung", "result": 9590, "unit": "nM"},
      {"measurement": "GI50", "setting": "CCRF-CEM leukemia", "result": 188, "unit": "nM"},
      {"measurement": "TGI", "setting": "CCRF-CEM leukemia", "result": 20800, "unit": "nM"},
      {"measurement": "GI50", "setting": "MDA-MB-231 breast", "result": 189, "unit": "nM"},
      {"measurement": "TGI", "setting": "MDA-MB-231 breast", "result": 1140, "unit": "nM"},
      {"measurement": "GI50", "setting": "M14 melanoma", "result": 74.6, "unit": "nM"},
      {"measurement": "TGI", "setting": "M14 melanoma", "result": 601, "unit": "nM"},
      {"measurement": "GI50", "setting": "OVCAR-5 ovarian", "result": 417, "unit": "nM"},
      {"measurement": "TGI", "setting": "OVCAR-5 ovarian", "result": 9270, "unit": "nM"},
      {"measurement": "GI50", "setting": "SW-620 colon", "result": 226, "unit": "nM"},
      {"measurement": "TGI", "setting": "SW-620 colon", "result": 5820, "unit": "nM"},
      {"measurement": "GI50", "setting": "KM12 colon", "result": 6.61, "unit": "nM"},
      {"measurement": "TGI", "setting": "KM12 colon", "result": 6050, "unit": "nM"},
      {"measurement": "GI50", "setting": "MCF7 breast", "result": 309, "unit": "nM"},
      {"measurement": "TGI", "setting": "MCF7 breast", "result": 5760, "unit": "nM"},
      {"measurement": "GI50", "setting": "TK-10 renal", "result": 679, "unit": "nM"},
      {"measurement": "TGI", "setting": "TK-10 renal", "result": 11600, "unit": "nM"},
      {"measurement": "GI50", "setting": "SF-295 CNS", "result": 294, "unit": "nM"},
      {"measurement": "TGI", "setting": "SF-295 CNS", "result": 9240, "unit": "nM"},
      {"measurement": "GI50", "setting": "BT-549 breast", "result": 1110, "unit": "nM"},
      {"measurement": "TGI", "setting": "BT-549 breast", "result": 9830, "unit": "nM"},
      {"measurement": "GI50", "setting": "NCI/ADR-RES ovarian", "result": 480, "unit": "nM"},
      {"measurement": "TGI", "setting": "NCI/ADR-RES ovarian", "result": 12500, "unit": "nM"},
      {"measurement": "GI50", "setting": "HCC-2998 colon", "result": 963, "unit": "nM"},
      {"measurement": "TGI", "setting": "HCC-2998 colon", "result": 9210, "unit": "nM"},
      {"measurement": "GI50", "setting": "MDA-MB-435", "result": 141, "unit": "nM"},
      {"measurement": "TGI", "setting": "MDA-MB-435", "result": 6090, "unit": "nM"},
      {"measurement": "GI50", "setting": "HCT-116 colon", "result": 150, "unit": "nM"},
      {"measurement": "TGI", "setting": "HCT-116 colon", "result": 2990, "unit": "nM"},
      {"measurement": "GI50", "setting": "786-0 renal", "result": 448, "unit": "nM"},
      {"measurement": "TGI", "setting": "786-0 renal", "result": 7860, "unit": "nM"}
    ]}
  ]
}
